Experimental data: US7309591B2, “Method for the production of resveratrol in cell cultures” (Universidad de Alicante, priority 2002, dated 2007)

Assays:
[1] = system: Vitis vinifera var. Gamay rouge cells; assay: Elicitation of t-resveratrol production in grapevine cell suspension, Gamay rouge; format: cell-based; details: cyclodextrin 50 mmol/liter in medium (BETA 15 mmol/liter); 96 hours of incubation; occasional presence of other unidentified phenolic products
Protocol: Vitis vinifera var. Gamay rouge: A grapevine cell line established by J. C. Pech in 1978 (ENSAT, Toulouse, France) from immature fruits of grapevine from the cultivar Gamay Fréaux has been used. The calluses were kept in 250 ml flasks containing 80 ml of Gamborg B5 basal medium (Gamborg et al. 1968. Experimental Cell Research 50:151-158) supplemented with Morel vitamins (Morel, G. 1970. “Le probléme de la transformation tumorale chez les végétaux”. Physiologie Végétale, 8:189-204), casein hydrolysate (0.25 g/l), saccharose (20 g/l) as carbonated source, and α-nafthalenacetic acid (0.1 mg/l) and kinetin (0.2 mg/l) as hormones (hereinafter, medium). This medium is adjusted to pH 6 and sterilized by applying humid heat (autoclave) for 20 min at a pressure of 121.2 kPa (1.2 athm), acquiring a solid consistency by the addition of purified agar (8 g/l) when the medium is cooled. Cell suspensions were started, from friable calluses obtained in the above described medium, in 250 ml flasks containing 80 ml of agar-free medium. The cells in liquid medium were kept in an orbital shaker at 100 rpm and 25° C., under a photoperiod of 14 hours of light (6 W/m^2) and 10 h in the dark.
(§1) For each elicitation experience, 4 g of fresh weight of cells previously washed with fresh medium and filtered were taken under sterile conditions. These cells were transferred to 50 ml flasks and replaced by the addition of 10 ml of sterile fresh medium supplemented in each case with the cyclodextrins stated below:
(§2) The flasks were incubated under the same conditions as described above for time periods ranging from 24 and 96 hours.
(§3) Once the incubation time had been completed, the cells were separated from the medium by filtration by making a slight vacuum with the help of a water pump, and the cells and the filtrate were separately collected.
(§4) For this, an aliquot of the filtrate was diluted in fresh medium, filtered through a 0.2 μm Anopore filter, and 20 μl of filtrate were injected in a LiChrospher 100 RP-18 column (250×4 mm, particle size 5 μm). Two types of solvents were used as mobile phase: solvent A, 0.05% trifluoroacetic acid in water, and solvent B, 0.05% trifluoroacetic acid in methanol:acetonitrile 60:40 vol/vol. The sample is eluted at a flow rate of 1 ml/min of the following solvent mixture: 0 min, 10% B; 5 min, 15% B; 40 min, 35% B; 45 min, 65% B; 50 min, 65% B; 55 min, 10% B; and at a column temperature of 35° C. (Dalluge et al., 1998. J. Chromatogr. A 793:265-274). […] Gamay corresponding to the start of incubation and to 96 hours of incubation in a culture medium containing RAMEB.
For routine analysis of t-resveratrol, an aliquot of the filtrate was diluted with fresh medium and its ultraviolet absorption spectrum was recorded using a Kontron Uvikon 940 spectrophotometer taking as reference the fresh medium. The concentration of t-resveratrol in the supernatant was estimated using a molar extinction coefficient at 306 nm of 26,800 M^−1 cm^−1 (Siemann, E. H. and Creasy, L. L. 1992, “Concentration of the phytoalexin resveratrol in wine”, Am. J. Enol. Vitic. 43:49-52). […] Gamay corresponding to the start of incubation and to 96 hours of incubation in a culture medium containing RAMEB.
The results obtained, expressed as mg of t-resveratrol per litre of filtrate, eliciting the cells with different cyclodextrins at concentrations of 50 mmol/litre of culture medium (except for BETA, for which the concentration corresponds to 15 mmol/litre due to its lower solubility), after 96 hours of incubation are given in Table 1.

[2] = system: Vitis vinifera var. Monastrell albino line cells; assay: Elicitation of t-resveratrol production in grapevine cell suspension, Monastrell albino; format: cell-based; details: cyclodextrin 50 mmol/liter in medium (BETA 15 mmol/liter); 96 hours of incubation; kept in the dark
Protocol: (§5) Vitis vinifera var. Monastrell: Two grapevine cell lines of cultivar Monastrell, one established in the dark (albino line) and another established in the presence of white light (green line) from immature fruits have been used. All manipulations and incubations for the green line were carried out in lighting conditions, but for the albino line, incubations for callus generation, development, and growth, as well as incubations of cell suspensions, were performed in the dark. For this, immature grapes approximately 5 mm in diameter were superficially sterilized by immersion in a 7% calcium hypochlorite solution for 15 minutes. After this time, and always under sterile conditions, grapes were washed 3 times with sterile bidistilled water, their seeds removed, and were divided into 4 portions. These portions (explants) were deposited until microcalluses appeared in a Petri dish containing a solid culture medium based on the medium reported by Murashige and Skoog (Murashige, T and Skoog, F. 1962. “A revised medium for rapid growth and bioassays with tobacco tissue cultures”. Physiologia Plantarum 15:473-497), supplemented with Morel vitamins, casein hydrolysate (0.25 g/l), saccharose (30 g/l) as carbonated source, and α-nafthalenacetic acid (0.1 mg/l) and kinetin (0.2 mg/l) as hormones, 8 g/l of purified agar, and adjusted to pH 6. Finally, these microcalluses were transferred to 250 ml flasks containing 80 ml of this same solid culture medium for callus development. Cell suspensions were started, from friable calluses, in 250 ml flasks containing 80 ml of Gamborg B5 basal medium, supplemented with Morel vitamins, casein hydrolysate (0.25 g/l), saccharose (20 g/l) as carbonated source, and α-nafthalenacetic acid (0.1 mg/l) and kinetin (0.2 mg/l) as hormones, in the absence of agar. The cells in liquid medium were kept in an orbital shaker at 100 rpm and 25° C.; the green line was submitted to a photoperiod of 14 hours of light (6 W/m^2) and 10 h in the dark, whereas the albino line was kept in the dark at all times.
as §1, §2, §3, §4
(§6) For routine analysis of t-resveratrol, an aliquot of the filtrate was diluted with fresh medium and its ultraviolet absorption spectrum was recorded using a Kontron Uvikon 940 spectrophotometer taking as reference the fresh medium. The concentration of t-resveratrol in the supernatant was estimated using a molar extinction coefficient at 306 nm of 26,800 M^−1 cm^−1 (Siemann, E. H. and Creasy, L. L. 1992, “Concentration of the phytoalexin resveratrol in wine”, Am. J. Enol. Vitic. 43:49-52). […]

[3] = system: grapevine cells in suspension; assay: Effect of cyclodextrins on grapevine cells in suspension (overall comparison, toxicity); format: cell-based, Vitis vinifera; details: for Capacity to induce the synthesis of t-resveratrol compared with the other cyclodextrins tested: grapevine cells in suspension, 96 hours
Protocol: as §1, §2
It is also noted that the intensity of the effect depends on the variety and the cell line (greater production is seen in the albino Monastrell variety than in the green Monastrell variety).

[4] = system: Vitis vinifera var. Monastrell green line cells; assay: Elicitation of t-resveratrol production in grapevine cell suspension, Monastrell green; format: cell-based; details: cyclodextrin 50 mmol/liter in medium (BETA 15 mmol/liter); 96 hours of incubation; heavy presence of cis-resveratrol
Protocol: as §5, §1, §2, §3, §4, §6

[5] = Solubility of t-resveratrol in an aqueous medium; format: physicochemical; details: 25° C., 5 days in the dark
Protocol: Five millilitres of a 11,410 mg/l solution of t-resveratrol (99% pure according to the supplier; Sigma, Madrid) in ethanol were placed in an spherical bottle, and ethanol was evaporated to dryness with a N2 current. Residual ethanol was eliminated by keeping the bottle under low pressure overnight. Five millilitres of aqueous medium were added to the solid residue, and the bottle was tightly closed and kept under shaking at 25° C. for 5 days in the dark. The resulting suspension was filtered through 0.2 μm Anopore filters, and the concentration of t-resveratrol in the filtrate was analyzed by UV spectroscopy.
The concentration of t-resveratrol in the filtrates, expressed as mg oft-resveratrol per litre of filtrate, is given in Table 2.

[6] = system: crypt formation in aberrant colon; details: rat model treated with a carcinogenic agent (azoxymethane); cited from earlier work
[7] = system: grapevine cell suspensions (Vitis vinifera var. Gamay); details: cited from earlier work

Row | Molecule | Trans-Resveratrol (mg/l) in filtrate, Gamay Rouge [1] [mg/L] | Trans-Resveratrol (mg/l) in filtrate, Monastrell albino [2] [mg/L] | Trans-Resveratrol (mg/l) in filtrate, Monastrell green [4] [mg/L] | further results
1 | sulphated β-cyclodextrin sodium salt [SULFOB] | 0 | 0 | 0 | Toxicity to grapevine cells in suspension ([3]; 50 mmol/liter in culture medium): toxic and kill the cells
2 | Randomly methylated β-cyclodextrin [CAVASOL ® W7 M] | 3280 | 4963 | 92 | Capacity to induce the synthesis of t-resveratrol compared with the other cyclodextrins tested [3]: greater capacity to induce the synthesis of t-resveratrol
3 | Oc1ccc(/C=C/c2cc(O)cc(O)c2)cc1 [t-resveratrol, trans-3,5,4′-trihydroxystilbene] | – | – | – | Solubility of t-resveratrol ([5]; Culture medium supplemented with 6.55 mg/ml of CAVASOL ® W7 M): 767 mg t-resveratrol/liter filtrated; Solubility of t-resveratrol ([5]; Culture medium supplemented with 6.55 mg/ml of DIMEB): 735 mg t-resveratrol/liter filtrated; Solubility of t-resveratrol ([5]; Culture medium supplemented with 6.55 mg/ml of RAMEB): 786 mg t-resveratrol/liter filtrated; Solubility of t-resveratrol ([5]; Culture medium): 48.8 mg t-resveratrol/liter filtrated; Solubility of t-resveratrol ([5]; Ultrapure water): 36.5 mg t-resveratrol/liter filtrated; Inhibition of crypt formation in aberrant colon [6]: significant inhibition of crypt formation
4 | OC[C@H]1O[C@H](O[C@H]2[C@H](O)[C@@H](O)[C@@H](OC[C@H]3O[C@@H]4O[C@H]5[C@H](O)[C@@H](O)[C@@H](O[C@H]6[C@H](O)[C@@H](O)[C@@H](O[C@H]7[C@H](O)[C@@H](O)C(O[C@H]8[C@H](O)[C@@H](O)[C@@H](O[C@H]9[C@H](O)[C@@H](O)[C@@H](O[C@H]%10[C@H](O)[C@@H](O)[C@@H](O[C@H]3[C@H](O)[C@H]4O)O[C@@H]%10CO)O[C@@H]9CO)O[C@@H]8CO)O[C@@H]7CO)O[C@@H]6CO)O[C@@H]5CO)O[C@@H]2CO)[C@H](O)[C@@H](O)[C@@H]1O [MALTOSYL, Maltosyl-β-cyclodextrin] | 390 | 660 | 20 | –
5 | (2-hydroxy) propyl-β-cyclodextrin [HYPROB] | 990 | 4110 | 90 | –
6 | COC[C@H]1O[C@@H]2O[C@H]3[C@H](O)[C@@H](OC)[C@@H](O[C@H]4[C@H](O)[C@@H](OC)[C@@H](O[C@H]5[C@H](O)[C@@H](OC)[C@@H](O[C@H]6[C@H](O)[C@@H](OC)[C@@H](O[C@H]7[C@H](O)[C@@H](OC)[C@@H](O[C@H]8[C@H](O)[C@@H](OC)[C@@H](O[C@H]1[C@H](O)[C@H]2OC)O[C@@H]8COC)O[C@@H]7COC)O[C@@H]6COC)O[C@@H]5COC)O[C@@H]4COC)O[C@@H]3COC [DIMEB, Heptakis (2,6-di-O-methyl)-β-cyclodextrin] | 3060 | 4680 | 90 | Ability to induce synthesis of t-resveratrol excreted into the culture medium [7]: induce
7 | OC[C@H]1O[C@@H]2O[C@H]3[C@H](O)[C@@H](O)[C@@H](O[C@H]4[C@H](O)[C@@H](O)[C@@H](O[C@H]5[C@H](O)[C@@H](O)[C@@H](O[C@H]6[C@H](O)[C@@H](O)[C@@H](O[C@H]7[C@H](O)[C@@H](O)[C@@H](O[C@H]8[C@H](O)[C@@H](O)[C@@H](O[C@H]1[C@H](O)[C@H]2O)O[C@@H]8CO)O[C@@H]7CO)O[C@@H]6CO)O[C@@H]5CO)O[C@@H]4CO)O[C@@H]3CO [BETA, β-cyclodextrin] | 30 | 60 | 0 | –
8 | Randomly methylated β-cyclodextrin [RAMEB] | 3320 | 5027 | 101 | Capacity to induce the synthesis of t-resveratrol compared with the other cyclodextrins tested [3]: greater capacity to induce the synthesis of t-resveratrol
